# Experimental data taken from patent US20100075907A1, “NEUROMEDIN U RECEPTOR AGONISTS AND USES THEREOF” (priority 2006, published 2010).
# Non-standard residues stand in square brackets, D forms with d. Residues, ends and D or L forms follow the SMILES beside them. hArg = N=C(N)NCCCC[C@H](N)C(=O)O; dNle = CCCC[C@@H](N)C(=O)O
# Biological target: hNMUR2 (Homo sapiens, UniProt Q9GZQ4)
# Experiment: In vitro functional assay, HEK-hR2 cells
# Assay type: cell-based
# Set-up: expressed in transfected cells; host or cells: FLP-In CHO or HEK-293 FLP-In cells (pcDNA5); HEK-293/aeq17 lines (pcDNA3.1) were also made; % Activity: concentration or dose not given beside the values
# Text: Human, mouse or rat cDNAs encoding NMUR1 or NMUR2 (as described in Howard et al. Nature 406: 70-74 (2000) were subcloned in pcDNA5 (Invitrogen) and transfected into FLP-In CHO cells and HEK-293 FLP-In cells purchased from Invitrogen (Carlsbad, Calif.) using lipofectamine (Invitrogen). The Flp-In system allows integration and expression of a particular gene of interest at a specific genomic location utilizing the Flp recombinase from yeast. The transfected cells were selected by growth in medium containing 200 μg/mL hygromycin (Invitrogen). Populations were frozen at early passage numbers, and these stocks were used for further studies. Stable clones that expressed the mRNAs were identified functionally by FLIPR as well as by RT-PCR. […] Two different rodent NMUR1 cell lines were thus generated: one with the codon as predicted from the genomic databases and another cell line with an engineered methionine (ATG) as the start codon. Additionally, stable cell lines expressing the human receptors were generated in HEK-293/aeq17 cells which stably express the aequorin gene under the CMV promoter. The human NMUR2 cDNA was cloned into pcDNA3.1 and human NMUR1 was subcloned into pIRES-puro (Clontech, Mountain View, Calif.), after transfection cells were selected in media containing G418 and either hygromycin (NMUR2) or puromycin (NMUR1).
# The NMU receptors signal primarily through Gαq/11 proteins; therefore calcium mobilization assays can be utilized for functional activity.
# Stable cell lines expressing human and or rodent NMUR1 or human NMUR2 receptors were plated at a density of 12,000 cells per well overnight on poly-lysine coated 384-well black-walled plates. The following day, the media was removed from the plates and the cells were subsequently loaded with Fluo-3 (Molecular Probes), a calcium sensitive dye, diluted in FLIPR buffer (1× Hank's buffered saline containing 20 mM HEPES, 0.1% BSA, 2.5 mM probenecid (Sigma) and 1.6 mM TR40). All reagents are from Invitrogen unless otherwise noted. Peptide stocks were resuspended in DMSO at a stock concentration of 2 mM and diluted in FLIPR buffer on the day of the experiment to a 4 μM working stock solution.
# After a 90 minute incubation at room-temperature, cell plates were loaded onto a FLIPR (Molecular Devices) to monitor cellular fluorescence (excitation=488 nm; emission=540 nm) before and after compound/peptide addition. Eight to twelve point dose responses were tested on NMUR-expressing cell lines using FLIPR with 1 μM peptide as the highest dose. The response after peptide addition was taken as the maximum fluorescence units minus the fluorescence immediately prior to stimulation for each well. EC50 values were calculated using GraphPad Prism (San Diego, Calif.) software.
# In addition to FLIPR, NMU receptor function can also be evaluated using an aequorin assay. Stable cell lines expressing the aequorin jelly fish gene can be used to report the activation of GPCRs by monitoring intracellular calcium mobilization. The objective is to identify compounds which specifically stimulate aequorin bioluminescence. Calcium-dependent luminescence is generated by the treatment of cells with the coelenterate luciferin, coelenterazine. Briefly, confluent monolayers of HEK-293/aeq 17 cells expressing hNMUR1 or hNMUR2 are “charged” with coelenterazine (Molecular Probes, Carlsbad, Calif.). Confluent T75 flasks are rinsed with media containing 300 μM glutathione and 0.1% FBS. Cells are incubated at 37° C. for one hour in 8 mL media, 0.1% FBS, 300 μM glutathione, and 20 μM coelenterazine. T75 flasks are subsequently rinsed with 6 mL ECB buffer (140 mM NaCl, 20 mM KCl, 20 mM HEPES, 5 mM glucose, 1 mM MgCl, 1 mM CaCl2, 0.1 mg/mL BSA, PH 7.3-7.4). Cells are removed from the flask in ECB buffer, pelleted, and resuspended at a density of 2×10^5 cells/mL. Agonists are added to the cells and activity is determined using a luminometer.
# Chain of hNMUR2 (Q9GZQ4 whole entry): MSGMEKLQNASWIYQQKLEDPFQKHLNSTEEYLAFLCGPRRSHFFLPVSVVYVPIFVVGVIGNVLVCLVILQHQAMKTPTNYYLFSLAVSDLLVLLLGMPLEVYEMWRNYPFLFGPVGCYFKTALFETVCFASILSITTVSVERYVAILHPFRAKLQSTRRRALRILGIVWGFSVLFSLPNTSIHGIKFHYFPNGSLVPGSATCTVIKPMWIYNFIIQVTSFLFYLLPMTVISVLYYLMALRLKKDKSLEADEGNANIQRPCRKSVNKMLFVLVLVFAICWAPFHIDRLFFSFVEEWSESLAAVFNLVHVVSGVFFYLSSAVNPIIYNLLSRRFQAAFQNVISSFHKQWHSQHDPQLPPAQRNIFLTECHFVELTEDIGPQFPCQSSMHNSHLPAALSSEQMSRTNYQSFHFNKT
SMILES,"% Activity (Table 8, HEK-hR2, functional)","IC50 (Table 8, HEK-hR2, functional)","% Activity (Table 9, HEK-hR2, functional)","EC50 (Table 9, HEK-hR2, functional)"
"CC(C)C[C@@H](NC(=O)[C@H](Cc1ccccc1)NC(=O)[C@@H](N)Cc1ccc(O)cc1)C(=O)N[C@@H](Cc1c[nH]c2ccccc12)C(=O)N[C@@H](CCCNC(=N)N)C(=O)N1CCC[C@H]1C(=O)N[C@@H](CCCNC(=N)N)C(=O)N[C@@H](CC(N)=O)C(N)=O [Agonist B, YF-(D-L)-WRPRN-CONH2] (H-YF[dL]WRPRN-NH2)",0%,> 1000 nM,–,–
"C[C@@H](NC(=O)[C@H](Cc1ccccc1)NC(=O)[C@@H](N)Cc1ccc(O)cc1)C(=O)N[C@@H](Cc1c[nH]c2ccccc12)C(=O)N[C@@H](CCCNC(=N)N)C(=O)N1CCC[C@H]1C(=O)N[C@@H](CCCNC(=N)N)C(=O)N[C@@H](CC(N)=O)C(N)=O [Agonist D, YF-(D-A)-WRPRN-CONH2] (H-YF[dA]WRPRN-NH2; N-terminus assumed)",0%,> 1000 nM,–,–
"CC(=O)N[C@@H](Cc1ccccc1)C(=O)N[C@H](CC(C)C)C(=O)N[C@@H](Cc1c[nH]c2ccccc12)C(=O)N[C@@H](CCCNC(=N)N)C(=O)N1CCC[C@H]1C(=O)N[C@@H](CCCNC(=N)N)C(=O)N[C@@H](CC(N)=O)C(N)=O [Agonist E, Ac-F-(D-L)-WRPRN-CONH2] (Ac-F[dL]WRPRN-NH2)",1.8%,> 1000 nM,–,–
"CC(C)C[C@H](NC(=O)[C@H](Cc1c[nH]c2ccccc12)NC(=O)[C@@H](N)Cc1ccccc1)C(=O)N[C@@H](Cc1ccccc1)C(=O)N[C@@H](CCCNC(=N)N)C(=O)N1CCC[C@H]1C(=O)N[C@@H](CCCCNC(=N)N)C(=O)N[C@@H](CC(N)=O)C(N)=O [Agonist I, FWLFRP-(Harg)-N-CONH2] (H-FWLFRP[hArg]N-NH2)",–,–,99%,–
"CC(C)C[C@H](NC(=O)[C@H](Cc1c[nH]c2ccccc12)NC(=O)[C@@H](N)Cc1ccccc1)C(=O)N[C@@H](Cc1ccccc1)C(=O)N[C@@H](CCCNC(=N)N)C(=O)N[C@@H](C)C(=O)N[C@@H](CCCCNC(=N)N)C(=O)N[C@@H](CC(N)=O)C(N)=O [Agonist J, FWLFRA-(Harg)-N-CONH2] (H-FWLFRA[hArg]N-NH2)",–,–,59%,–
"CCCC[C@@H](NC(=O)[C@H](CCCNC(=N)N)NC(=O)[C@H](C)NC(=O)[C@H](CCCNC(=N)N)NC(=O)[C@H](Cc1ccccc1)NC(=O)[C@H](CC(C)C)NC(=O)[C@H](Cc1ccccc1)NC(=O)[C@@H](N)Cc1c[nH]c2ccccc12)C(N)=O [Agonist K, WFLFRAR-(D-Nle)-CONH2] (H-WFLFRAR[dNle]-NH2)",–,–,100%,2 nM
CC(C)C[C@H](NC(=O)[C@H](Cc1c[nH]c2ccccc12)NC(=O)[C@H](Cc1ccccc1)NC(=O)CNC(=O)[C@H](CCCNC(=N)N)NC(=O)[C@H](CO)NC(=O)[C@H](CCC(N)=O)NC(=O)[C@H](CO)NC(=O)[C@H](C)NC(=O)[C@H](Cc1ccccc1)NC(=O)[C@@H]1CCCN1C(=O)[C@H](CO)NC(=O)[C@H](CCC(N)=O)NC(=O)[C@H](Cc1ccccc1)NC(=O)[C@H](CCC(=O)O)NC(=O)[C@H](CCC(=O)O)NC(=O)[C@H](CC(=O)O)NC(=O)[C@@H](NC(=O)[C@H](CCCNC(=N)N)NC(=O)[C@@H](N)Cc1ccccc1)C(C)C)C(=O)N[C@@H](Cc1ccccc1)C(=O)N[C@@H](CCCNC(=N)N)C(=O)N1CCC[C@H]1C(=O)N[C@@H](CCCCNC(=N)N)C(=O)N[C@@H](CC(N)=O)C(N)=O [Agonist O] (H-FRVDEEFQSPFASQSRGFWLFRP[hArg]N-NH2; N-terminus assumed),–,–,67%,16 nM
